From patent US20100298141A1, “SUBSTITUTED PYRIDINE N-OXIDE HERBICIDES” (E. I. DU PONT DE NEMOURS AND COMPANY, priority 2007, published 2010)

Key:
[1] = tested on: giant foxtail; experiment: Test A pre-/postemergence greenhouse test; type: in vivo, Setaria faberi; details: for Foxtail, Giant plant response rating: 0 to 100 scale; for Plant response rating, Foxtail, Giant: 0 to 100 scale where 0 is no effect and 100 is complete control
In short: (§1)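 Seeds sown in a loam soil–sand blend got a preemergence directed soil spray of compound in a non-phytotoxic solvent mixture containing surfactant. Postemergence sprays of the same formulation went at the same time onto plants 2–10 cm tall at the one- to two-leaf stage. Injury was scored visually against untreated controls after about ten days in the greenhouse.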

[2] = tested on: redroot pigweed; experiment: Test A pre-/postemergence greenhouse test; type: in vivo, Amaranthus retroflexus; details: for Pigweed plant response rating: 0 to 100 scale; for Plant response rating, Pigweed: 0 to 100 scale where 0 is no effect and 100 is complete control
In short: as §1

[3] = tested on: velvetleaf; experiment: Test A pre-/postemergence greenhouse test; type: in vivo, Abutilon theophrasti; details: for Velvetleaf plant response rating: 0 to 100 scale; for Plant response rating, Velvetleaf: 0 to 100 scale where 0 is no effect and 100 is complete control
In short: as §1

[4] = tested on: wheat; experiment: Test A pre-/postemergence greenhouse test; type: in vivo, Triticum aestivum; details: for Wheat plant response rating: 0 to 100 scale; for Plant response rating, Wheat: 0 to 100 scale where 0 is no effect and 100 is complete control
In short: as §1

[5] = tested on: corn; experiment: Test A pre-/postemergence greenhouse test; type: in vivo, Zea mays; details: for Corn plant response rating: 0 to 100 scale; for Plant response rating, Corn: 0 to 100 scale where 0 is no effect and 100 is complete control
In short: as §1

[6] = tested on: wild oat; experiment: Test C pre-/postemergence test; type: in vivo, Avena fatua
In short: (§2)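 Test chemicals were formulated with surfactant in a non-phytotoxic solvent and sprayed both on freshly planted seeds (preemergence) and on 1- to 4-leaf plants of 2–18 cm (postemergence). Flooded-paddy pots received compound directly into 3 cm of standing water, maintained for the test.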

[7] = tested on: bermudagrass; experiment: Test C pre-/postemergence test; type: in vivo, Cynodon dactylon
In short: as §2

[8] = tested on: Surinam grass; experiment: Test C pre-/postemergence test; type: in vivo, Brachiaria decumbens
In short: as §2

[9] = tested on: giant foxtail; experiment: Test C pre-/postemergence test; type: in vivo, Setaria faberii
In short: as §2

[10] = tested on: Goosegrass; experiment: Test C pre-/postemergence test; type: in vivo, Eleusin indica
In short: as §2

[11] = tested on: johnsongrass; experiment: Test C pre-/postemergence test; type: in vivo, Sorghum halepense
In short: as §2

[12] = tested on: lambsquarters; experiment: Test C pre-/postemergence test; type: in vivo, Chenopodium album
In short: as §2

[13] = tested on: eastern black nightshade; experiment: Test C pre-/postemergence test; type: in vivo, Solanum ptycanthum
In short: as §2

[14] = tested on: common ragweed; experiment: Test C pre-/postemergence test; type: in vivo, Ambrosia elation
In short: as §2

[15] = tested on: velvetleaf; experiment: Test C pre-/postemergence test; type: in vivo, Abutilon theophrasti
In short: as §2

[16] = tested on: rice; experiment: Test C flooded paddy test; type: in vivo, Oryza sativa; details: Flood
In short: (§3)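 Compound was added to standing water 3 cm above soil, flood maintained, and plants held in a greenhouse before visual scoring against controls at 13 to 15 days.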

[17] = tested on: duck salad; experiment: Test C flooded paddy test; type: in vivo, Heteranthera limosa; details: Flood
In short: as §3

[18] = tested on: barnyardgrass; experiment: Test C flooded paddy test; type: in vivo, Echinochloa crus-galli; details: Flood
In short: as §3

[19] = Postemergence, 125 g ai/ha, 0 is no effect, 100 is complete control
[20] = Postemergence, 500 g ai/ha, 0 is no effect, 100 is complete control
[21] = Preemergence, 125 g ai/ha, 0 no effect, 100 complete control
[22] = 31 g ai/ha, Preemergence, scale 0 to 100
[23] = 62 g ai/ha, preemergence, scale 0 (no effect) to 100 (complete control)
[24] = preemergence, 125 g ai/ha, scale 0 (no effect) to 100 (complete control)
[25] = 31 g ai/ha, scale 0 to 100 (0 no effect, 100 complete control)
[26] = 62 g ai/ha, scale 0 to 100, 0 no effect, 100 complete control, 13 to 15 days
[27] = 125 g ai/ha, scale 0 to 100, 0 no effect, 100 complete control, 13 to 15 days
[28] = 250 g ai/ha, scale 0 to 100 (0 no effect, 100 complete control)
[29] = 62 g ai/ha, Preemergence, scale 0 to 100
[30] = 125 g ai/ha, preemergence, scale 0 (no effect) to 100 (complete control)
[31] = Preemergence, 31 g ai/ha, scale 0 to 100 (0 no effect, 100 complete control)
[32] = preemergence, 250 g ai/ha, scale 0 (no effect) to 100 (complete control)
[33] = 62 g ai/ha, scale 0 to 100 (0 no effect, 100 complete control)
[34] = 250 g ai/ha, scale 0 to 100, 0 no effect, 100 complete control, 13 to 15 days

## Cn1nc(C(F)(F)F)c(C[S+]([O-])c2cccc[n+]2[O-])c1Cl (centres unmarked) [Compound 8]
[1]; [19]
  Foxtail, Giant plant response rating: 80
[1]; [20]
  Foxtail, Giant plant response rating: 90
[1]; [21]
  Foxtail, Giant plant response rating: 100
[1]; Preemergence, 500 g ai/ha
  Plant response rating, Foxtail, Giant: 100
[2]; [19]
  Pigweed plant response rating: 20
[2]; [20]
  Pigweed plant response rating: 60
[2]; [21]
  Pigweed plant response rating: 100
[2]; Preemergence, 500 g ai/ha
  Plant response rating, Pigweed: 100
[3]; [19]
  Velvetleaf plant response rating: 40
[3]; [20]
  Velvetleaf plant response rating: 70
[3]; [21]
  Velvetleaf plant response rating: 70
[3]; Preemergence, 500 g ai/ha
  Plant response rating, Velvetleaf: 80
[4]; [19]
  Wheat plant response rating: 30
[4]; [20]
  Wheat plant response rating: 60
[4]; [21]
  Wheat plant response rating: 60
[4]; Preemergence, 500 g ai/ha
  Plant response rating, Wheat: 70
[5]; [19]
  Corn plant response rating: 50
[5]; [20]
  Corn plant response rating: 60
[5]; [21]
  Corn plant response rating: 20
[5]; Preemergence, 500 g ai/ha
  Plant response rating, Corn: 70
[6]; [22]
  Oat, Wild plant response rating: 0
[6]; [23]
  Oat, Wild plant response rating: 20
[6]; Preemergence, 250 g ai/ha
  Plant response rating (0 to 100), Oat, Wild: 60
[6]; [24]
  Oat, Wild plant response rating: 40
[7]; [22]
  Bermudagrass plant response rating: 80
[7]; [23]
  Bermudagrass plant response rating: 100
[7]; Preemergence, 250 g ai/ha
  Plant response rating (0 to 100), Bermudagrass: 100
[7]; [24]
  Bermudagrass plant response rating: 100
[8]; [23]
  Surinam Grass plant response rating: 85
[8]; Preemergence, 250 g ai/ha
  Plant response rating (0 to 100), Surinam Grass: 100
[8]; [24]
  Surinam Grass plant response rating: 100
[9]; [22]
  Foxtail, Giant plant response rating: 85
[9]; [23]
  Foxtail, Giant plant response rating: 98
[9]; Preemergence, 250 g ai/ha
  Plant response rating (0 to 100), Foxtail, Giant: 100
[9]; [24]
  Foxtail, Giant plant response rating: 100
[10]; [22]
  Goosegrass plant response rating: 98
[10]; [23]
  Goosegrass plant response rating: 100
[10]; Preemergence, 250 g ai/ha
  Plant response rating (0 to 100), Goosegrass: 100
[10]; [24]
  Goosegrass plant response rating: 100
[11]; [22]
  Johnsongrass plant response rating: 80
[11]; [23]
  Johnsongrass plant response rating: 85
[11]; Preemergence, 250 g ai/ha
  Plant response rating (0 to 100), Johnsongrass: 100
[11]; [24]
  Johnsongrass plant response rating: 85
[12]; [22]
  Lambsquarters plant response rating: 80
[12]; [23]
  Lambsquarters plant response rating: 98
[12]; Preemergence, 250 g ai/ha
  Plant response rating (0 to 100), Lambsquarters: 100
[12]; [24]
  Lambsquarters plant response rating: 100
[13]; [22]
  Nightshade plant response rating: 80
[13]; [23]
  Nightshade plant response rating: 85
[13]; Preemergence, 250 g ai/ha
  Plant response rating (0 to 100), Nightshade: 100
[13]; [24]
  Nightshade plant response rating: 100
[14]; [22]
  Ragweed plant response rating: 50
[14]; [23]
  Ragweed plant response rating: 60
[14]; Preemergence, 250 g ai/ha
  Plant response rating (0 to 100), Ragweed: 90
[14]; [24]
  Ragweed plant response rating: 60
[15]; [23]
  Velvetleaf plant response rating: 45
[15]; Preemergence, 250 g ai/ha
  Plant response rating (0 to 100), Velvetleaf: 100
[15]; [24]
  Velvetleaf plant response rating: 98
[16]; [25]
  Plant response rating, Rice: 0
[16]; [26]
  Plant response rating, Rice: 0
[16]; [27]
  Plant response rating, Rice: 0
[16]; [28]
  Plant response rating, Rice: 20
[17]; [25]
  Plant response rating, Ducksalad: 0
[17]; [26]
  Plant response rating, Ducksalad: 0
[17]; [27]
  Plant response rating, Ducksalad: 50
[17]; [28]
  Plant response rating, Ducksalad: 90
[18]; [25]
  Plant response rating, Barnyardgrass: 0
[18]; [26]
  Plant response rating, Barnyardgrass: 0
[18]; [27]
  Plant response rating, Barnyardgrass: 40
[18]; [28]
  Plant response rating, Barnyardgrass: 85

## CCc1cc[n+]([O-])c(S(=O)(=O)Cc2c(C(F)(F)F)nn(C)c2OCC(F)(F)F)c1 [Compound 60]
[1]; Postemergence, 125 g ai/ha
  Plant response rating, Foxtail, Giant: 60
[1]; [20]
  Foxtail, Giant plant response rating: 90
[1]; [21]
  Foxtail, Giant plant response rating: 100
[1]; Preemergence, 500 g ai/ha
  Plant response rating, Foxtail, Giant: 100
[2]; Postemergence, 125 g ai/ha
  Plant response rating, Pigweed: 60
[2]; [20]
  Pigweed plant response rating: 80
[2]; [21]
  Pigweed plant response rating: 100
[2]; Preemergence, 500 g ai/ha
  Plant response rating, Pigweed: 100
[3]; Postemergence, 125 g ai/ha
  Plant response rating, Velvetleaf: 60
[3]; [20]
  Velvetleaf plant response rating: 70
[3]; [21]
  Velvetleaf plant response rating: 70
[3]; Preemergence, 500 g ai/ha
  Plant response rating, Velvetleaf: 100
[4]; Postemergence, 125 g ai/ha
  Plant response rating, Wheat: 50
[4]; [20]
  Wheat plant response rating: 60
[4]; [21]
  Wheat plant response rating: 50
[4]; Preemergence, 500 g ai/ha
  Plant response rating, Wheat: 70
[5]; Postemergence, 125 g ai/ha
  Plant response rating, Corn: 30
[5]; [20]
  Corn plant response rating: 60
[5]; [21]
  Corn plant response rating: 0
[5]; Preemergence, 500 g ai/ha
  Plant response rating, Corn: 50
[6]; [29]
  Oat, Wild plant response rating: 85
[6]; [30]
  Oat, Wild plant response rating: 90
[6]; [31]
  Plant response rating, Oat, Wild: 40
[6]; [32]
  Oat, Wild plant response rating: 98
[7]; 62 g ai/ha, Preemergence, scale 0 to 100 (0 no effect, 100 complete control)
  Bermudagrass plant response rating: 100
[7]; [30]
  Bermudagrass plant response rating: 100
[7]; [31]
  Plant response rating, Bermudagrass: 100
[7]; [32]
  Bermudagrass plant response rating: 100
[8]; [29]
  Surinam Grass plant response rating: 100
[8]; [30]
  Surinam Grass plant response rating: 100
[8]; [31]
  Plant response rating, Surinam Grass: 95
[8]; [32]
  Surinam Grass plant response rating: 100
[9]; [29]
  Foxtail, Giant plant response rating: 100
[9]; [30]
  Foxtail, Giant plant response rating: 100
[9]; [31]
  Plant response rating, Foxtail, Giant: 100
[9]; [32]
  Foxtail, Giant plant response rating: 100
[10]; [29]
  Goosegrass plant response rating: 100
[10]; [30]
  Goosegrass plant response rating: 100
[10]; [31]
  Plant response rating, Goosegrass: 100
[10]; [32]
  Goosegrass plant response rating: 100
[11]; [29]
  Johnsongrass plant response rating: 100
[11]; [30]
  Johnsongrass plant response rating: 100
[11]; [31]
  Plant response rating, Johnsongrass: 100
[11]; [32]
  Johnsongrass plant response rating: 100
[12]; [29]
  Lambsquarters plant response rating: 100
[12]; [30]
  Lambsquarters plant response rating: 100
[12]; [31]
  Plant response rating, Lambsquarters: 100
[12]; [32]
  Lambsquarters plant response rating: 100
[13]; [29]
  Nightshade plant response rating: 80
[13]; [30]
  Nightshade plant response rating: 100
[13]; [32]
  Nightshade plant response rating: 100
[14]; [29]
  Ragweed plant response rating: 60
[14]; [31]
  Plant response rating, Ragweed: 30
[14]; [32]
  Ragweed plant response rating: 90
[15]; [29]
  Velvetleaf plant response rating: 40
[15]; [30]
  Velvetleaf plant response rating: 100
[15]; [31]
  Plant response rating, Velvetleaf: 0
[15]; [32]
  Velvetleaf plant response rating: 100
[16]; [33]
  Plant response rating, Rice: 0
[16]; [34]
  Plant response rating, Rice: 20
[17]; [33]
  Plant response rating, Ducksalad: 0
[17]; [34]
  Plant response rating, Ducksalad: 40
[18]; [33]
  Plant response rating, Barnyardgrass: 20
[18]; [34]
  Plant response rating, Barnyardgrass: 45
